# Results published in patent US11412737B2, “Mixtures of beflubutamid or optically enriched forms thereof with a second herbicide” (FMC Corporation, priority 2016, dated 2022).
# Experiments:
# Green foxtail (SETVI) = experiment: post-emergence test, weed control; format: in vivo, Setaria viridis; conditions: post-emergent, 28 DAT, BFL at 187.5 g, combination of both
# Procedure: (§1) Test compositions containing the test compounds were diluted with water to provide the appropriate test rate concentrations.
# (§2) For post-emergence testing, seeds of each species for each rate of application of each herbicide solution were planted in 7.5 cm×7.5 cm plastic pots filled with potting soil. The seeds were germinated and the resulting plants were allowed to grow in a greenhouse until they reached a growth stage, such as height, suitable for testing. Treatments were applied using compressed air in a track spray chamber at 30 gallons/acre (280 L/ha) using a TeeJet 8001E nozzle at 40 psi (2.76 bars). Pots of post-emergent treated plants were returned to the greenhouse and not watered for 24 hours after treatment. Thereafter they were regularly watered and fertilized for the duration of the test.
# (§3) The control of weeds was evaluated in each experimental test at 21 for wheat and 28 days after treatment (DAT) for all species. Data were analyzed using Minitab software at 95% confidence interval. The results, shown as an average of the replications, were compared with results observed in untreated control flats in the same tests. Percent control was determined by a method similar to the 0 to 100 rating system disclosed in “Research Methods in Weed Science,” 2nd ed., B. Truelove, Ed.; Southern Weed Science Society; Auburn University, Auburn, Ala., 1977. The rating system is as follows in Table 1.
# Wild oat (AVEFA) = experiment: post-emergence test, weed control; format: in vivo, Avena fatua; conditions: post-emergent, 28 DAT; for percentage of weed control, AVEFA: height 11 cm, rate g ai/ha by row: r25 94, r26 125, r27 188, r28 125, r29 250, r30 94+125, r31 125+125, r32 188+125, r33 94+250, r34 125+250, r35 188+250; for control of wild oats (AVEFA): DCI at 250 g/ha
# Procedure: as §1, §2, §3
# [1] = system: Littleseed canarygrass (PHAMI); experiment: post-emergence test, weed control; format: in vivo, Phalaris minor; conditions: post-emergent, 28 DAT, height 7-8 cm, rate g ai/ha by row: r25 94, r26 125, r27 188, r28 125, r29 250, r30 94+125, r31 125+125, r32 188+125, r33 94+250, r34 125+250, r35 188+250
# Procedure: as §1, §2, §3
# [2] = system: Common lambsquarters (CHEAL); experiment: pre-emergence test, weed control; format: in vivo, Chenopodium album; conditions: pre-emergent, 28 DAT
# Procedure: as §1
# (§4) For pre-emergence testing, four disposable fiber flats (6 inch by 10 inch) for each rate of application of each herbicide solution were filled with top soil, to which seeds of each species were planted in furrows made by a template pressed on the top of the soil. The furrows were covered with soil after planting the seed and were watered well before application of the test compounds.
# (§5) Fiber flats designated for treatment were placed in a spray chamber having a static platform and a movable sprayer and the height of the spray nozzle was 10.5 inches above the soil level. Once the sprayer was calibrated using water for spray volume of 30 gallons per acre, flats were sprayed with sprayer at a speed to receive a coverage equivalent of 30 gallons per acre. The application rates are those shown in the Tables below for the individual herbicidal solutions and the herbicide compositions of this invention. The pre-emergence flats were immediately placed in the greenhouse and watered lightly after treatment. Thereafter they were regularly watered and fertilized for the duration of the test.
# as §3
# Barnyardgrass (ECHCG) = experiment: post-emergence test, weed control; format: in vivo, Echinochloa crus-galli; conditions: post-emergent, 28 DAT
# Procedure: as §1
# as §2, with “Treatments were applied using compressed air in a track spray chamber at 30 gallons/acre (280 L/ha) using a TeeJet 8001E nozzle at 40 psi (2.76 bars).” left out
# The control of weeds was evaluated in each experimental test at 21 for wheat and 28 days after treatment (DAT) for all species. […] The rating system is as follows in Table 1.
# Italian ryegrass (LOLMU) = experiment: post-emergence test, weed control; format: in vivo, Lolium perenne. multiflorum; conditions: post-emergent, 28 DAT; for control of Italian rygrass (LOLMU): combination of both
# Procedure: as §1, §2, §3
# Palmer amaranth (AMAPA) = experiment: pre-emergence test, weed control; format: in vivo, Amaranthus palmeri; conditions: pre-emergent, 28 DAT; BFL at 125 g/ha, DCI at 125 g/ha, combination of both
# Procedure: as §1, §4, §5, §3
# Large crabgrass (DIGSA) = experiment: post-emergence test, weed control; format: in vivo; conditions: post-emergent, 28 DAT; BFL at 188 g/ha, DCI at 125 g/ha, combination of both
# Procedure: as §1, §2, §3
# Annual bluegrass (POAAN) = experiment: post-emergence test, weed control; format: in vivo, Poa annua; conditions: post-emergent, 28 DAT, height 1-2 cm, rate g ai/ha by row: r7 94, r8 125, r9 188, r10 125, r11 250, r12 94+125, r13 125+125, r14 188+125, r15 94+250, r16 125+250, r17 188+250
# Procedure: as §1, §2, §3
# Silky windgrass (APSEV) = experiment: post-emergence test, weed control; format: in vivo; conditions: post-emergent, 28 DAT, height 1-1.5 cm, rate g ai/ha by row: r25 94, r26 125, r27 188, r28 125, r29 250, r30 94+125, r31 125+125, r32 188+125, r33 94+250, r34 125+250, r35 188+250
# [3] = BFL at 125 g/ha, DCI at 125 g/ha, combination of both
compound,measurement,setting,value
"CCC(Oc1ccc(F)c(C(F)(F)F)c1)C(=O)NCc1ccccc1 (racemic) [BFL, 2-[4-fluoro-3-(trifluoromethyl)phenoxy]-N-(phenylmethyl)butanamide]",control of green foxtail,Green foxtail (SETVI); PTX at 890 g,54%
same,control of green foxtail,Green foxtail (SETVI); PYX at 90 g,54%
same,"percentage of weed control, AVEFA",Wild oat (AVEFA); 94 g ai/ha,0%
same,"percentage of weed control, AVEFA",Wild oat (AVEFA); 188 g ai/ha,5%
same,control of wild oats (AVEFA),"Wild oat (AVEFA); BFL at 125 g/ha, combination of both",0%
same,control of wild oats,"Wild oat (AVEFA); BFL at 187.5 g, PYX at 90 g, combination of both",15%
same,control of wild oats (AVEFA),"Wild oat (AVEFA); BFL at 188 g/ha, combination of both",5%
same,"percentage of weed control, PHAMI",[1]; 94 g ai/ha,0%
same,"percentage of weed control, PHAMI",[1]; 188 g ai/ha,1%
same,control of lambsquarters (CHEAL),[2]; [3],42%
same,"percentage of weed control, CHEAL","[2]; rate g ai/ha by row: r4 94, r5 50, r6 100, r7 52.5, r8 70, r9 94+52.5, r10 94+70, r11 50+52.5, r12 50+70, r13 100+52.5, r14 100+70",16%
same,"percentage of weed control, Barnyardgrass ECHCG","Barnyardgrass (ECHCG); COC 1%, rate g ai/ha by row: r5 94, r6 125, r7 250, r8 1.25, r9 2.5, r10 5, r11 94+1.25, r13 125+1.25, r15 94+2.5, r17 125+2.5, r19 94+5, r21 125+5",5%
same,control of barnyardgrass (ECHCG),Barnyardgrass (ECHCG); [3],6%
same,"percentage of weed control, LOLMU","Italian ryegrass (LOLMU); height 5-6 cm, rate g ai/ha by row: r25 94, r26 125, r27 188, r28 125, r29 250, r30 94+125, r31 125+125, r32 188+125, r33 94+250, r34 125+250, r35 188+250",0%
same,control of Italian rygrass (LOLMU),"Italian ryegrass (LOLMU); BFL at 188 g/ha, DCI at 125 g/ha",0%
same,control of Italian rygrass (LOLMU),"Italian ryegrass (LOLMU); DCI at 250 g/ha, BFL at 125 g/ha",0%
same,control of Palmer amaranth (AMAPA),Palmer amaranth (AMAPA),69%
same,control of large crabgrass (DIGSA),Large crabgrass (DIGSA),19%
same,"percentage of weed control, POAAN",Annual bluegrass (POAAN); 94 g ai/ha,0%
same,"percentage of weed control, POAAN",Annual bluegrass (POAAN); 188 g ai/ha,2%
same,"percentage of weed control, APSEV",Silky windgrass (APSEV); 94 g ai/ha,0%
same,"percentage of weed control, APSEV",Silky windgrass (APSEV); 188 g ai/ha,5%
